#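 How tested: cells in 96-well plates exposed to compound for 48 hours at five concentrations. Here, GI50 denotes the concentration required for 50% inhibition of growth. TGI: concentration producing complete growth inhibition.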
# Assays:
# Experiment in all cases: inhibition of tumour cell growth, NCI panel, 48 h
# [1] = tested on: MCF7 breast
# [2] = tested on: MDA-MB-231 breast
# [3] = tested on: MDA-MB-435
# [4] = tested on: MOLT-4 leukemia
# [5] = tested on: NCI-H460 lung
# [6] = tested on: NCI-H522 lung
# [7] = tested on: OVCAR-5 ovarian
# [8] = tested on: PC-3 prostate
# [9] = tested on: RPMI-8226 leukemia
# [10] = tested on: RXF 393 renal
# [11] = tested on: SF-268 CNS
# [12] = tested on: SF-295 CNS
# [13] = tested on: SF-539 CNS
# [14] = tested on: SK-MEL-2 melanoma
# [15] = tested on: SK-MEL-5 melanoma
# [16] = tested on: SK-OV-3 ovarian
# [17] = tested on: SNB-19 CNS
# [18] = tested on: SNB-75 CNS
# [19] = tested on: SR leukemia
# [20] = tested on: T-47D breast
# [21] = tested on: TK-10 renal
# [22] = tested on: U251 CNS
# [23] = tested on: UACC-257 melanoma
# [24] = tested on: UACC-62 melanoma
smiles,measurement,setting,value
Nc1nc(-c2cccc([N+](=O)[O-])c2)c(N=Nc2ccccc2[N+](=O)[O-])s1,GI50,[1],18.8 µM
same,TGI,[1],> 100 µM
same,GI50,[2],1460 nM
same,TGI,[2],3.26 µM
same,GI50,[3],865 nM
same,TGI,[3],> 100 µM
same,GI50,[4],8.73 µM
same,TGI,[4],> 100 µM
same,GI50,[5],2250 nM
same,TGI,[5],> 100 µM
same,GI50,[6],1940 nM
same,TGI,[6],14.4 µM
same,GI50,[7],8.34 µM
same,TGI,[7],> 100 µM
same,GI50,[8],3.43 µM
same,TGI,[8],> 100 µM
same,GI50,[9],4.18 µM
same,TGI,[9],> 100 µM
same,GI50,[10],1640 nM
same,TGI,[10],3.2 µM
same,GI50,[11],3.62 µM
same,TGI,[11],> 100 µM
same,GI50,[12],2800 nM
same,TGI,[12],14.1 µM
same,GI50,[13],1470 nM
same,TGI,[13],2890 nM
same,GI50,[14],14.8 µM
same,TGI,[14],38.7 µM
same,GI50,[15],3.41 µM
same,TGI,[15],31.1 µM
same,GI50,[16],2130 nM
same,TGI,[16],5.2 µM
same,GI50,[17],3.01 µM
same,TGI,[17],14.4 µM
same,GI50,[18],1440 nM
same,TGI,[18],3.61 µM
same,GI50,[19],22.7 µM
same,TGI,[19],> 100 µM
same,GI50,[20],4.04 µM
same,TGI,[20],> 100 µM
same,GI50,[21],2910 nM
same,TGI,[21],5.95 µM
same,GI50,[22],1690 nM
same,TGI,[22],3.29 µM
same,GI50,[23],63.4 µM
same,TGI,[23],> 100 µM
same,GI50,[24],2110 nM
same,TGI,[24],> 100 µM

# — PubChem BioAssay (NCI)
